For data set [1] the following is noted: cited from earlier work.
For the next data set, the system named is rat hepatocytes. The following applies: cited from earlier work.
A further data set deals with mammalian cell mutation. The following applies: cited from earlier work.
The test system of data set [2] is Chinese hamster ovary cells. The conditions noted are these: cited from earlier work.
The test system of the next data set is Chinese hamsters. The following applies: cited from earlier work.
The subject of data set [3] is mice. The following applies: cited from earlier work.
A further data set deals with bacterial mutagenesis. The conditions noted are these: with and without metabolic activation; cited from earlier work.
The conditions of data set [4]: cited from earlier work. The source holds these as a separate data set.
For data set [5] the following is noted: cited from earlier work. The source holds these as a separate data set.
Data set [6] concerns mice. The conditions noted are these: cited from earlier work. The source holds these as a separate data set.
The subject of another data set is rats. The conditions noted are these: female rats given 279 mg/kg, 2 years; cited from earlier work.
The test system of the next data set is uterus. The following applies: clinical studies; cited from earlier work.
In data set [7] the test system is women. The following applies: women taking the drug, MORE trial; cited from earlier work.
In the next data set the test system is postmenopausal women. The conditions noted are these: cited from earlier work.
The conditions of data set [8]: cited from earlier work. This is another data set of the same source.
A short description of the next data set: in vitro. The conditions noted are these: human, topical or ocular.
The conditions of data set [9]: oral, cited from earlier work.
The test system of data set [10] is women. The conditions noted are these: cited from earlier work.

Converted amounts (≈) assume the structure as drawn. Structures can show the parent of a compound that is named as a salt. Where two headings read alike, the source gives them in different places.

For `O=C(c1ccc(OCCN2CCCCC2)cc1)c1c(-c2ccc(O)cc2)sc2cc(O)ccc12` [Raloxifene.HCl, raloxifene hydrochloride], the “increase in AUC with increasing doses” value in [1] (doses ranging from 30 to 150 mg) is “slightly less than a proportional increase”. The “genotoxicity, unscheduled DNA synthesis assay” value in the data set with rat hepatocytes was “not genotoxic”. Further, in the data set with mammalian cell mutation, the “genotoxicity, mouse lymphoma assay” value is given as “not genotoxic”. Besides, the “genotoxicity, chromosomal aberration assay” value in data set [2] is on record as “not genotoxic”. Besides, in the data set with Chinese hamsters, the “genotoxicity, in vivo sister chromatid exchange assay” value was “not genotoxic”. The “genotoxicity, in vivo micronucleus test” value in the data set on mice [3] was “not genotoxic”. For the same compound, in the data set with bacterial mutagenesis, the “genotoxicity, Ames test” value is reported as “not genotoxic”.
The log P is a log measure of how a compound divides between an organic and an aqueous phase. For orientation: bioavailability means the share of a dose that reaches the circulation, judged against a reference dose that is usually intravenous. For `O=C(c1ccc(OCCN2CCCCC2)cc1)c1c(-c2ccc(O)cc2)sc2cc(O)ccc12` [Raloxifene], in data set [1] (after oral dosing), the plasma elimination half-life is 27.7 h. Further, the clearance rate entry in [1] (following intravenous administration) is on record as “approximating hepatic blood flow”. The water solubility in [4] (H2O) was 0.25 µg/mL (≈ 0.528 µM). For the same compound, the “log P” value in [5] is 5.749. For the same compound, in the data set with mice [6] (female mice given 9 to 242 mg/kg, 21 months), the “incidence of ovarian tumors” value is recorded as “increased incidence”. For the same compound, the “incidence of prostatic leiomyoblastoma” value in the data set with mice [6] (male mice given 210 mg/kg) is “increased incidence”. Besides, the “incidence of testicular interstitial cell tumors, prostatic adenomas, and adenocarcinomas” value with mice [6] (male mice given 41 or 210 mg/kg) is “increased incidence”. Also, the “incidence in ovarian tumors of granulosa/theca cell origin” value in the data set with rats is “increased incidence”. Besides, the uterotrophic activity entry in the data set on uterus is “does not have uterotrophic activity”. The “incidence of breast cancer compared with controls” value in the data set on women [7] is on record as “lower incidence”. Besides, the “fewer uterine cancers than those assigned to tamoxifen” value with postmenopausal women (STAR trial) was 36%. In addition, in the data set on postmenopausal women (postmenopausal women, STAR trial interim analysis), the “reduction of risk for invasive breast cancer” value is given as “approximately 50%”. For the same compound, the “increased incidence of VTE” value in data set [8] (oral) is 2-4 times. Also, in data set [8] (raloxifene use), the plasma antithrombin levels entry was “significant reduction” and the tPA levels entry is on record as “significant reduction”. For the same compound, the bioavailability at 3 wt % in “in vitro” was roughly 1%. In data set [9], the absolute bioavailability is 2%. Besides, in data set [9] (listed as raloxifene), the absolute bioavailability result was “approximately 2%”.
estrogen: the “VTE rates compared to placebo group” value in the data set with women [10] (estrogen transdermally) is “no significant difference”. Also, the “risk of VTE compared to a placebo group” value in the data set with women [10] (oral estrogen, 95 percent CI 1.8-6.8) is on record as 3.5 fold.
Take `O=C1CC[C@@]2(O)[C@H]3Cc4ccc(O)c5c4[C@@]2(CCN3CC2CC2)[C@H]1O5` [Naltrexone]: the “solubility in water” value in data set [4] (water) is listed as “water soluble”.

(Values after patent US20080139513A1, “TRANSDERMAL DELIVER OF ACTIVE AGENTS” (Novavax, Inc., priority 2006, published 2008).)
